# Patent US9371519B2, “Complex type sugar chain hydrolase” (National Institute of Advanced Industrial Science and …, priority 2011, dated 2016)
# Assays:
# [1] = molecular target: T1, Ogataea minuta endo-β-N-acetylglucosaminidase Endo-Om, wild type (recombinant, purified), SEQ ID NO: 1 (Ogataea minuta, UniProt R4WHQ8); assay: Km and Vmax for NGA2-Asn-Fmoc hydrolysis, purified Endo-Om (HPLC); assay type: biochemical
# T1 sequence (R4WHQ8 1-772): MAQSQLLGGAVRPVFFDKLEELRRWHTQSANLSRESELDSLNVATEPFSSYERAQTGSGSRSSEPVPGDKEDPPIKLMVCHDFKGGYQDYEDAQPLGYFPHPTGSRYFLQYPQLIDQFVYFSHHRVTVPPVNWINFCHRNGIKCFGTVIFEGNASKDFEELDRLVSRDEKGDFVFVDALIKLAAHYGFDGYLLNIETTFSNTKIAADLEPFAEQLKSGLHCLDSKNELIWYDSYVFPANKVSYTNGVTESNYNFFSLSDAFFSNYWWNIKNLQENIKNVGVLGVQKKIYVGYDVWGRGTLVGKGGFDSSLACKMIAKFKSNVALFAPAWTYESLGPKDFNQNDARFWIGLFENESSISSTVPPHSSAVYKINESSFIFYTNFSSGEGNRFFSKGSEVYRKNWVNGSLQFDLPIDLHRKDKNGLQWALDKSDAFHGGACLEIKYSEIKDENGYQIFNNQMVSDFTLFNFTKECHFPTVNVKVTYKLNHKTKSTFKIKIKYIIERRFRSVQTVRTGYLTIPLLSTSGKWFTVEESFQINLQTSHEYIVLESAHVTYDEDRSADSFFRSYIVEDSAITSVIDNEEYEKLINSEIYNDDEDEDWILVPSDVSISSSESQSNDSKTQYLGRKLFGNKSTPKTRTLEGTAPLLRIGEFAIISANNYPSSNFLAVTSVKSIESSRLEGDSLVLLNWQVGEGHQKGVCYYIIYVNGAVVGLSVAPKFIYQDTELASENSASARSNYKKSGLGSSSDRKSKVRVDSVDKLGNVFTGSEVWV
# Procedure: (§1) The enzyme activity was measured as follows. A reaction solution (total volume: 10 μl) containing 100 mM of a sodium acetate buffer (pH 5.3) at the final concentration, 0.5 M NaCl, 10 μM of a Fmoc-labeled biantennary complex type sugar chain (NGA2-Asn-Fmoc), and an Endo-Om crude enzyme solution was incubated at 50° C. for 1 hour, and heated at 95° C. for 5 minutes, thereby stopping the enzyme reaction. The reaction solution was subjected to HPLC, and the enzymatic activity was calculated from the peak area ratio between the NGA2-Asn-Fmoc as the substrate and its hydrolysate. The column was Asahipak NH2P-50 4E (4.6.250 mm, Shodex), and the solvents were acetonitrile (solvent A) and 200 mM of TEAA (pH 7.0, GLEN RESEARCH: solvent B). Isocratic elution was carried out at a flow rate of 1.0 ml/min, and the solvent B: 43%, and detection was carried out using a fluorescence detector (excitation wavelength 265 nm, and fluorescence wavelength 315 nm). The activity hydrolyzing 1 vol of NGA2-Asn-Fmoc in 1 minute under the above-described reaction conditions was defined as 1 Unit of the enzymatic activity of Endo-Om.
# (§2) The properties of Endo-Om were studied using a purified enzyme solution. According to the method described in Example 4, the Endo-Om crude enzyme solution prepared from 100 ml culture was substituted with an equilibration buffer (20 mM sodium phosphate buffer (pH 7.4), 0.5 M NaCl, 0.5 mM PMSF, 50 mM imidazole) by dialysis. […] According to the method described in Example 4, the activity of the Endo-Om purified enzyme solution when the substrate concentration was 1 mM was measured, and the specific activity was calculated. In addition, activity measurement was carried out using NGA2-Asn-Fmoc at different concentrations as the substrates, and Km and Vmax were calculated. For comparison, the specific activity, Km, and Vmax of the commercially available Endo-M were calculated by the same method. […]
# [2] = molecular target: T2, Mucor hiemalis endo-β-N-acetylglucosaminidase Endo-M (commercially available) (Mucor hiemalis, UniProt Q9C1S6); assay: Km and Vmax for NGA2-Asn-Fmoc hydrolysis, commercially available Endo-M (HPLC); assay type: biochemical; conditions: sodium acetate pH 6.0, 0.5 M NaCl, 50° C.
# T2 sequence (Q9C1S6 1-744): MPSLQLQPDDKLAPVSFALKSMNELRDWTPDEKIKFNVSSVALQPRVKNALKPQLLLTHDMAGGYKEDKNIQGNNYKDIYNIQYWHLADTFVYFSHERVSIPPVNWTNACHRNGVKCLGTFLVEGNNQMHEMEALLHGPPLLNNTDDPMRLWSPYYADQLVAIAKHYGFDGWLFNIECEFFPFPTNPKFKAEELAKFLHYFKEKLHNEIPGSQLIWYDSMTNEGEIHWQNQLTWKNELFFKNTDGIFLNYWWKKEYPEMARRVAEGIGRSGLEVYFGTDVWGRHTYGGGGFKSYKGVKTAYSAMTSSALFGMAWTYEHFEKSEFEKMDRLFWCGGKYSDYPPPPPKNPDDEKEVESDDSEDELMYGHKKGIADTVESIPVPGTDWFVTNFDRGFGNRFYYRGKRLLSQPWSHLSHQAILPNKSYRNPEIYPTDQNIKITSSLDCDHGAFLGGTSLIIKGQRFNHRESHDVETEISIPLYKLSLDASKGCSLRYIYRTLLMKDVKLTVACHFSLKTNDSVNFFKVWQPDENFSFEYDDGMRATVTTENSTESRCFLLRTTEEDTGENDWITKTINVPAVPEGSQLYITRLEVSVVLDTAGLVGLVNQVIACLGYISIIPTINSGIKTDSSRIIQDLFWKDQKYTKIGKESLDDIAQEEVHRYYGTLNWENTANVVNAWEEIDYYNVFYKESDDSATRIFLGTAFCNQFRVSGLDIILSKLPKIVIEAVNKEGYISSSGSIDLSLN
# Procedure: as §1, with “The column was Asahipak NH2P-50 4E (4.6.250 mm, Shodex), and the solvents were acetonitrile (solvent A) and 200 mM of TEAA (pH 7.0, GLEN RESEARCH: solvent B).” left out, “The activity hydrolyzing 1 vol of NGA2-Asn-Fmoc in 1 minute under the above-described reaction conditions was defined as 1 Unit of the enzymatic activity of Endo-Om.” left out
# as §2, with “solution.” for “solution. According to the method described in Example 4, the Endo-Om crude enzyme solution prepared from 100 ml culture was substituted with an equilibration buffer (20 mM sodium phosphate buffer (pH 7.4), 0.5 M NaCl, 0.5 mM PMSF, 50 mM imidazole) by dialysis.”
compound,measurement,setting,value
CC(=O)N[C@@H]1[C@@H](O)[C@H](O[C@@H]2O[C@H](CO)[C@@H](O[C@@H]3O[C@H](CO[C@H]4O[C@H](CO)[C@@H](O)[C@H](O)[C@@H]4O[C@@H]4O[C@H](CO)[C@@H](O)[C@H](O)[C@H]4NC(C)=O)[C@@H](O)[C@H](O[C@H]4O[C@H](CO)[C@@H](O)[C@H](O)[C@@H]4O[C@@H]4O[C@H](CO)[C@@H](O)[C@H](O)[C@H]4NC(C)=O)[C@@H]3O)[C@H](O)[C@H]2NC(C)=O)[C@@H](CO)O[C@H]1NC(=O)C[C@H](NC(=O)OCC1c2ccccc2-c2ccccc21)C(=O)O [NGA2-Asn-Fmoc],Km,"[1]; Endo-Om, sodium acetate pH 5.3, 0.5 M NaCl, 50° C., NGA2-Asn-Fmoc at different concentrations",5.54 mM
same,Vmax,"[1]; Endo-Om, sodium acetate pH 5.3, 0.5 M NaCl, 50° C., unit as printed in b33 and b95",3.88 µmol/min/mg
same,Vmax of Endo-Om relative to Vmax of Endo-M,[1]; ratio Endo-Om / Endo-M,55 times
same,Vmax,[2],0.070 µmol/min/mg
